From patent publication US20160176859A1, “High-Throughput Assay for Identifying Small Molecules that Modulate AMP-activated Protein Kinase (AMPK)” (North Carolina Central University, priority 2013, published 2016)
pIC50, pKd: −log10 of the molar value. “Also recorded” adds a separate entry of the source. Where two headings read alike, the source gives them in different places.

Tests used:
[1] = biological target: T1, full-length AMPK (rat His-α1, β1, γ1) (Rattus norvegicus, UniProt P54645+P80385); experiment: MANT-ADP fluorescence displacement (binding) assay, full-length AMPK; conditions: for displacement of MANT-ADP: full-length AMPK compared with regulatory fragment: compared in parallel; for pIC50: full-length AMPK; for inhibition of the protein-bound signal of MANT-ADP in the triplicate similarity screen: final concentration 45 μM
T1 construct: Tricistronic vectors encoding full-length AMPK (rat His-α1, β1, γ1); made in house; host or cells: Rosetta cells (E. coli), tricistronic vector, gift of Dr. Uwe Schlattner
Description: (§1) Except where otherwise noted, assays were performed with the following conditions: 0.5 μM full-length AMPK (130 kDa) or 0.5 μM regulatory fragment (66.7 kDa), 0.1 μM MANT-ADP, 10 mM Tris-HCl (pH 8), 0.45% DMSO (vehicle and negative control), and 5 μM ADP (positive control). Automated assays were assembled in two steps. First, a NanoQuot (BioTek) was used to dispense 11 μL of master mix (protein, MANT-ADP, and Tris-HCl) per well in black, low volume 384-well plates (Corning-3676). Next, a Biomek NX workstation (Beckman-Coulter, Brea, Calif.) equipped with pintools (VP Scientific, San Diego Calif.) was used to transfer 50 nL of controls (columns 1, 2, 23, and 24) and small molecules (4.5 μM final). Controls and library molecules were transferred from Axygen 384-well rigid PCR plates (Cat no. 321-67-051) at 221× concentration for single-concentration screening. Plates were shaken for 10 minutes prior to reading.
(§2) Fluorescence emission spectra of MANT-ADP were collected using a PerkinElmer EnSpire plate reader with an excitation wavelength of 360 nm. Background fluorescence from protein was subtracted from the raw data prior to plotting MANT-ADP's fluorescence in the presence of protein. Fluorescence detection for assay development and screening was performed on either a BMG Pherastar Plus (360/10 excitation and 460/10 emission filters) or a PerkinElmer EnVision (355/40 excitation and 460/25 emission filters), depending on equipment availability. Relative fluorescence units (RFUs) were recorded at room temperature.
(§3) ScreenAble (ScreenAble Solutions, Chapel Hill, N.C.) high-throughput screening software was utilized for merging screening data and chemical structure, for statistical design of experiments, and hit selection. GraphPad Prism was used for non-linear regression analysis of dose response data.
(§4) Binding assays. Except where otherwise noted, assay assembly and data analysis were completed according to published methods. Binding assays were manually assembled, with the exception of the similarity screen. Automated assembly of the similarity screen was completed according to published methods. Analogs were cherry-picked from a 10 mM Asinex small molecule library and a 0.5 mM kinase focused library, which has been described previously (4). Molecules were screened at a final concentration of 45 and 2.3 μM, respectively.

[2] = biological target: T2, AMPK regulatory fragment (rat His-α1, 396-548; human β2, 187-272; rat γ1) (Rattus norvegicus, UniProt P80385); experiment: MANT-ADP fluorescence displacement (binding) assay, AMPK regulatory fragment; conditions: MANT-ADP with no protein = 100% inhibition, read-out: IC50, inhibition of the increase in MANT-ADP fluorescence
T2 construct: rat His-α1, 396-548; human β2, 187-272; rat γ1; made in house; host or cells: Rosetta cells (E. coli), tricistronic vector, gift of Dr. Steve Gamblin
Description: as §1, §2, §3, §4

[3] = biological target: T3, full-length His-AMPK (Rattus norvegicus, UniProt P54645+P80385); experiment: Isothermal titration calorimetry; format: binding; conditions: both sites; 5 mM phosphate buffer (pH 7.4), room temperature; n=1; read-out: calculated dissociation constants
T3 construct: Tricistronic vectors encoding full-length AMPK (rat His-α1, β1, γ1); made in house; host or cells: Rosetta cells (E. coli), tricistronic vector, gift of Dr. Uwe Schlattner
Description: ITC. A MicroCal Auto-iTC200 system (GE Healthcare, Pittsburgh, Pa.) was used to study binding interactions between ADP and full-length His-AMPK at room temperature in the presence of 5 mM phosphate buffer (pH 7.4). To decrease the ionic strength of the buffer, full-length AMPK frozen in 50 mM phosphate buffer was thawed, diluted in 5 mM phosphate buffer (pH 7.4) and then concentrated via centrifugal filtration. At the start of the ITC experiment, the concentrations of His-AMPK (in the sample cell) and ADP (in the syringe) were 70 μM and 1.4 mM, respectively.

[4] = biological target: T4, purified p-AMPK (Rattus norvegicus, UniProt P54645+P80385); experiment: Kinase assay with purified p-AMPK and GST-ACC peptide; format: biochemical
T4 construct: Full-length AMPK intended for use in phosphatase and kinase assays was purified, mixed with GST-CaMKKβ; made in house; host or cells: Rosetta cells (E. coli); phosphorylated in vitro with GST-CaMKKβ, which was then removed on glutathione resin
Description: Kinase assays. Assay conditions were adapted from published methods (17). The final assay buffer was comprised of 40 mM Hepes (pH 7.4) 5 mM MgCl2, 200 μM ATP, 75 mM NaCl, 0.01% Triton X-100, 1 mM DTT, and 0.45% DMSO (vehicle). Because some analogs had poor solubility at high concentrations, all analogs and controls were diluted in assay buffer and centrifuged (1 min, 5000 rpm, 4° C.) to remove insoluble matter. GST-ACC peptide and p-AMPK were thawed, diluted in assay buffer, and then added to the supernatant at final concentrations of 900 and 0.1 ng/μL, respectively. Kinase assays were assembled on ice; reactions were allowed to proceed for 30 minutes at room temperature. Reactions were stopped by the addition of loading buffer and 48 mM DTT followed promptly by freezing at −20° C.
(§5) Western analyses. Protein samples were boiled for 15 minutes in loading buffer and DTT prior to SDS-PAGE. Blots for protein-based assays were sequentially incubated with the following: 5% BSA in 1× TBS (1 hr, 22° C.), 1:1000 rabbit anti-human p-AMPK-α antibody or p-ACC antibody (2 hr, 22° C.), and 1:10,000 donkey anti-rabbit secondary antibody (1 hr, 22° C.). Blots for phosphatase assays were probed a second time using 1:100 mouse anti-human total AMPK antibody (overnight, 4° C.; from UNC Antibody Core Facility) followed by 1:10,000 donkey anti-mouse secondary antibody (1 hr, 22° C.). Blots for clarified cell lysates were sequentially probed for p-AMPK (1:500 dilution, overnight at 4° C. or 4 hours at 22° C.), total ACC (1:1000 dilution, overnight at 4° C. or 4 hours at 22° C.), and tubulin (1:10,000 dilution, 1 hr, 22° C.); a parallel set of blots were probed for p-ACC (1:500 dilution, overnight at 4° C. or 4 hours at 22° C.), total AMPK (1:1000 dilution, overnight at 4° C. or 4 hours at 22° C.), and tubulin (1:10,000 dilution, 1 hr, 22° C.). Because phosphorylated and total protein were imaged on separate membranes, the signals were normalized to the internal tubulin signal prior to calculating the ratio of phosphorylated to total protein. Scanning and imaging were completed according to published methods.

[5] = biological target: T5, p-AMPK in the presence of PP2C (Rattus norvegicus, UniProt P54645+P80385); experiment: Phosphatase assay: protection of p-AMPK from dephosphorylation by PP2C; format: biochemical; conditions: p-AMPK/total AMPK ratio normalized to no-PP2C control
T5 construct: Full-length AMPK intended for use in phosphatase and kinase assays was purified, mixed with GST-CaMKKβ; made in house; host or cells: Rosetta cells (E. coli); phosphorylated in vitro with GST-CaMKKβ, which was then removed
Description: Phosphatase assays. Assay conditions were adapted from published methods (18). In short, the final assay buffer was compromised of 50 mM Tris (pH 7.5), […], 0.01% Triton X-100, 1 mM DTT, and 0.45% DMSO (vehicle). Because some analogs had poor solubility at high concentrations, all analogs and controls were diluted in assay buffer and centrifuged (1 min, 5000 rpm, 4° C.) to remove insoluble matter. PP2C and p-AMPK were added to the supernatant at final concentrations of 2 and 3 ng/μL, respectively. Phosphatase reactions were allowed to proceed for 30 minutes at 37° C. Reactions were stopped by the addition of loading buffer and 48 mM DTT followed promptly by freezing at −20° C.
Western analyses. Protein samples were boiled for 15 minutes in loading buffer and DTT prior to SDS-PAGE. Blots for protein-based assays were sequentially incubated with the following: 5% BSA in 1× TBS (1 hr, 22° C.), 1:1000 rabbit anti-human p-AMPK-α antibody or p-ACC antibody (2 hr, 22° C.), and 1:10,000 donkey anti-rabbit secondary antibody (1 hr, 22° C.). Blots for phosphatase assays were probed a second time using 1:100 mouse anti-human total AMPK antibody (overnight, 4° C.; from UNC Antibody Core Facility) followed by 1:10,000 donkey anti-mouse secondary antibody (1 hr, 22° C.). […]

[6] = tested on: p-ACC levels in HEK cells; experiment: Cell-intact assay, p-ACC levels in HEK cells; format: cell-based, human; conditions: for p-ACC levels (substrate phosphorylation), pre-conditioned HEK cells: serum starvation followed by 10% serum, 1 hour
Description: (§6) Cell-intact assays. HEK cells were grown in DMEM with 10% FBS and 1% penicillin/streptomycin at 37° C. A subset of plates was serum-starved for 5 hours on the day of the experiment. After 5 hours of serum-starvation, cells were treated with either controls (0.2% DMSO, A-769662, or Compound C) or small molecules in the absence of serum for an additional hour prior to lysis. Another subset of plates was serum-starved for 6 hours and then treated with either controls or small molecules for 1 hour in the presence of 10% FBS. A time course of both AMPK and ACC phosphorylation in HEK cells during serum starvation has already been published (Pirkmajer S, Chibalin A V. Serum starvation: caveat emptor. American journal of physiology Cell physiology. 2011 August; 301(2):C272-9. PubMed PMID: 2161361).
After incubating in the presence of drugs for one hour, cells were washed three times with ice-cold PBS and lysed according to published methods (Kazgan N, Williams T, Forsberg L J, Brenman J E. Identification of a nuclear export signal in the catalytic subunit of AMP-activated protein kinase. Molecular biology of the cell. 2010 Oct. 1; 21(19):3433-42. PubMed PMID: 20685962. Pubmed Central PMCID: 2947478). Lysates were centrifuged at 16,000 g (10 minutes, 4° C.). Clarified supernatant (30 μL) was then transferred to 10 μL 4X loading buffer and 2 μL 1 M DTT. Samples were immediately frozen at −20° C. The concentration of protein in diluted clarified supernatant was calculated using a DC protein assay kit (BioRad) prior to western analyses.
as §5

[7] = tested on: p-AMPK levels in HEK cells; experiment: Cell-intact assay, p-AMPK levels in HEK cells; format: cell-based, human; conditions: serum starvation followed by 10% serum; 1 hour
Description: as §6
After incubating in the presence of drugs for one hour, cells were washed three times with ice-cold PBS and lysed according to published methods (Kazgan N, Williams T, Forsberg L J, Brenman J E. Identification of a nuclear export signal in the catalytic subunit of AMP-activated protein kinase. Molecular biology of the cell. 2010 Oct. 1; 21(19):3433-42. PubMed PMID: 20685962. Pubmed Central PMCID: 2947478). […] The concentration of protein in diluted clarified supernatant was calculated using a DC protein assay kit (BioRad) prior to western analyses. […]

[8] = tested on: HEK cells; experiment: Cell-intact assay, attachment of HEK cells to tissue culture plates; format: cell-based, human; conditions: absence of serum
Description: as §6

[9] = Example 4, read-out: binding IC50

T4 sequence (P54645 with tags, fused parts or gaps limits assumed): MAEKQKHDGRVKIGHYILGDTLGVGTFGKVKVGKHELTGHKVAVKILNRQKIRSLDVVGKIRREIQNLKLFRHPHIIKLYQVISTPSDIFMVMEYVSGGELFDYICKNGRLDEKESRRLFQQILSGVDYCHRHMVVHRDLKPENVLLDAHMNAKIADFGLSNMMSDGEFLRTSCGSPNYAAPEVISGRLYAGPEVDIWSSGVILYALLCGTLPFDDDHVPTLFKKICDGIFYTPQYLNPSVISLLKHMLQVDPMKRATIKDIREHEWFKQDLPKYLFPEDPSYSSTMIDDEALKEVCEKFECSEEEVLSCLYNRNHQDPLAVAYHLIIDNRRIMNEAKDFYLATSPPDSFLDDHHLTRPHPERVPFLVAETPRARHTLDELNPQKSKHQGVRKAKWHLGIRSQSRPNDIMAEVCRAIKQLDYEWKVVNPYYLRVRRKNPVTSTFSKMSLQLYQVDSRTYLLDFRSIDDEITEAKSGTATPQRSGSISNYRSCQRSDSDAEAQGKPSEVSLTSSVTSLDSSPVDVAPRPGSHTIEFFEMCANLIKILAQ
T4 sequence (P80386 whole entry partner): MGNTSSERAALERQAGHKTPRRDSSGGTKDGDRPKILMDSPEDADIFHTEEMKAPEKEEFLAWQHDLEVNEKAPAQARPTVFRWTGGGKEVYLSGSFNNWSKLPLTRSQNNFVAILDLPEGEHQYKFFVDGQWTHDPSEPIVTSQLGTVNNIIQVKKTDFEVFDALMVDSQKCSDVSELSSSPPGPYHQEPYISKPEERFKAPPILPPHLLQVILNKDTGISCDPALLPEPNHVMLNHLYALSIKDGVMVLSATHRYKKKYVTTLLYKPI
T4 sequence (P80385 whole entry): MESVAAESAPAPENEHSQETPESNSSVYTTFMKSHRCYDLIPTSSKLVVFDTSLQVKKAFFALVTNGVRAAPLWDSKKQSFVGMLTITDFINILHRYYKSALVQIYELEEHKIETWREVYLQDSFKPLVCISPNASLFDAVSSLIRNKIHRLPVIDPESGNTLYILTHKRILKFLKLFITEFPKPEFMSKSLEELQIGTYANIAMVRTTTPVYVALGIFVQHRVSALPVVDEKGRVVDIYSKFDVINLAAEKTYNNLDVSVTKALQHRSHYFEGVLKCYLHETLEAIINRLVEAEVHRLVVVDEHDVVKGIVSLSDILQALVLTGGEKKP
T1 sequence (P54645 with tags, fused parts or gaps limits assumed): as the sequence (P54645 with tags, fused parts or gaps limits assumed) above
T1 sequence (P80386 whole entry partner, the tested form may be a part): as the sequence (P80386 whole entry partner) above
T1 sequence (P80385 whole entry, the tested form may be a part): as the sequence (P80385 whole entry) above
T5 sequence (P54645 with tags, fused parts or gaps limits assumed): as the sequence (P54645 with tags, fused parts or gaps limits assumed) above
T5 sequence (P80386 whole entry partner): as the sequence (P80386 whole entry partner) above
T5 sequence (P80385 whole entry): as the sequence (P80385 whole entry) above
T3 sequence (P54645 with tags, fused parts or gaps limits assumed): as the sequence (P54645 with tags, fused parts or gaps limits assumed) above
T3 sequence (P80386 whole entry partner): as the sequence (P80386 whole entry partner) above
T3 sequence (P80385 whole entry): as the sequence (P80385 whole entry) above
T2 sequence (P54645 407-559 partner limits assumed): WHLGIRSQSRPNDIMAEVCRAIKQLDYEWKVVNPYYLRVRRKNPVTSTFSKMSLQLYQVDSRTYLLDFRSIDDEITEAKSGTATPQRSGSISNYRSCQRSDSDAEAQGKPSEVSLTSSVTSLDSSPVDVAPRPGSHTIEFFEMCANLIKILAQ
T2 sequence (O43741 187-272 partner limits assumed): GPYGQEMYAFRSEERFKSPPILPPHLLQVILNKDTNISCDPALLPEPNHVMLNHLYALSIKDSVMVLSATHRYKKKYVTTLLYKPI
T2 sequence (P80385 whole entry, the tested form may be a part): as the sequence (P80385 whole entry) above

| Structure (SMILES) | displacement of MANT-ADP: full-length AMPK compared with regulatory fragment [1] | pIC50 ([1]; MANT-ADP with no protein = 100% inhibition, read-out: IC50, inhibition of the increase in MANT-ADP fluorescence) | pIC50 [2] | pKd [3] | inhibition of the protein-bound signal of MANT-ADP in the triplicate similarity screen [1] | pIC50 [1, 9] | activity of purified p-AMPK (phosphorylation of GST-ACC peptide), dose response ([4]; compared to DMSO control) | dose response when repeated with an additional concentration at 1 μM ([4]; high p-GST-ACC peptide at both 1 and 40 μM, data not shown) | substrate phosphorylation at higher doses ([4]; higher doses) | protection of p-AMPK from dephosphorylation [5] | p-ACC levels, serum-treated HEK cells ([6]; 10% serum) | p-ACC levels (substrate phosphorylation), pre-conditioned HEK cells [6] | p-AMPK levels, pre-conditioned HEK cells [7] | detachment of cells from tissue culture plates [8] |
| --- | --- | --- | --- | --- | --- | --- | --- | --- | --- | --- | --- | --- | --- | --- |
| Nc1ncnc2c1ncn2[C@@H]1O[C@H](COP(=O)(O)OP(=O)(O)O)[C@@H](O)[C@H]1O [ADP, adenosine diphosphate, reference compound] | same binding IC50; also recorded: same concentration | 6.52 | 6.40 | 4.89 | – | – | – | – | – | – | – | – | – | – |
| O=C1/C(=C/c2ccc(-c3ccc(Cl)c(Cl)c3)o2)SC(=S)N1CCS(=O)(=O)O [BAS 02250954, 2-[(5Z)-5-{[5-(3,4-Dichlorophenyl)furan-2-yl]methylidene}-4-oxo-2-sulfanylidene-1,3-thiazolidin-3-yl]ethane-1-sulfonic acid] | greater concentration | – | – | – | reproducibly inhibited | > 5.30 | significantly inhibited substrate phosphorylation at low doses; also recorded: inhibits substrate phosphorylation | complete U-shaped dose response | permitted substrate phosphorylation | protected p-AMPK from dephosphorylation | decreased substrate phosphorylation | no change in substrate phosphorylation; also recorded: does not increase | high levels of p-AMPK | caused many cells to detach |
| CCCOC(=O)c1cc(-c2ccc(/C=C3\SC(=S)NC3=O)o2)ccc1Cl [BAS 03338548, Propyl 2-chloro-5-(5-{[(5Z)-4-oxo-2-sulfanylidene-1,3-thiazolidin-5-ylidene]methyl}furan-2-yl)benzoate] | – | – | – | – | reproducibly inhibited | > 5.30 | – | – | – | failed to protect | – | – | – | – |
| N#Cc1c(O)c2c(-c3ccc(-c4ccccc4O)cc3)csc2[nH]c1=O [Example A-769662, reference compound] | – | – | – | – | – | – | – | – | – | – | – | increased | increased | – |
